Experimental data: DBAASP
Converted amounts (≈) assume the structure as drawn. One block for each compound: values may come before it.

What was measured:
Assay in all cases: ≥ marks a high value that may be exact or a test limit, other limits are often not marked, values filed in µg/mL are converted to µM
[1] = system: Escherichia coli ATCC 25922
[2] = system: Pseudomonas aeruginosa PAO1
[3] = system: Staphylococcus aureus USA 300
[4] = system: Candida albicans ATCC 14053
[5] = system: Enterococcus faecalis ATCC 29212
[6] = system: Klebsiella pneumoniae ATCC 13883
[7] = system: Pseudomonas aeruginosa ATCC 27853
[8] = system: Staphylococcus aureus ATCC 29213
Acinetobacter baumannii = system: Acinetobacter baumannii
[9] = system: Candida albicans ATCC 2002
Enterococcus faecium = system: Enterococcus faecium
Klebsiella pneumoniae = system: Klebsiella pneumoniae
Serratia marcescens = system: Serratia marcescens
[10] = system: Staphylococcus aureus ATCC 2592
[11] = system: Candida albicans NCPF 1467
[12] = system: Staphylococcus aureus NCTC 10788
[13] = system: Clavibacter michiganensis subsp. michiganensis DSM 46294
[14] = system: Pectobacterium carotovorum subsp. carotovorum DSM 30168
[15] = system: Pseudomonas corrugata DSM 7228
[16] = system: Pseudomonas syringae pv. syringae DSM 10604
[17] = system: Pseudomonas syringae pv. tomato DC3000
[18] = system: Xanthomonas vesicatoria DSM 50861
Candida albicans = system: Candida albicans
Micrococcus luteus = system: Micrococcus luteus
Proteus mirabilis = system: Proteus mirabilis
Pseudomonas aeruginosa = system: Pseudomonas aeruginosa
Salmonella typhimurium = system: Salmonella typhimurium
Shigella dysenteriae = system: Shigella dysenteriae
Escherichia coli K-12 = system: Escherichia coli K-12
[19] = system: Acinetobacter baumannii ATCC 19606
[20] = system: Candida albicans ATCC 90028
[21] = system: Cryptococcus neoformans ATCC 208821
[22] = system: Klebsiella pneumoniae ATCC 700603
[23] = system: Staphylococcus aureus ATCC 43300

MIC [1]: 12.5 µM (≈ 15.7 µg/mL)
MIC [2]: > 25 µM
MIC [3]: 12.5 µM (≈ 15.7 µg/mL)
SMILES: CC(C)C[C@H](NC(=O)[C@H](CC(C)C)NC(=O)[C@H](CCCCN)NC(=O)CNC(=O)[C@H](C)NC(=O)[C@H](C)NC(=O)[C@H](CCCCN)NC(=O)[C@H](CC(C)C)NC(=O)[C@H](C)NC(=O)[C@H](CO)NC(=O)[C@H](CC(C)C)NC(=O)[C@H](CC(C)C)NC(=O)CN)C(N)=O [GLLSALKAAGKLL]

MIC [4]: ≥ 144 µM
MIC [5]: 72 µM (≈ 177 µg/mL)
MIC [1]: 25.3 µM (≈ 62.2 µg/mL)
MIC [6]: 25.3 µM (≈ 62.2 µg/mL)
MIC [7]: 144 µM (≈ 353 µg/mL)
MIC [8]: 72 µM (≈ 177 µg/mL)
SMILES: CC[C@H](C)[C@H](NC(=O)[C@@H](NC(=O)[C@H](CC(N)=O)NC(=O)[C@H](CO)NC(=O)[C@H](CC(C)C)NC(=O)[C@@H](NC(=O)CN)C(C)C)C(C)C)C(=O)NCC(=O)N[C@@H](Cc1ccc(O)cc1)C(=O)N[C@@H](CC(C)C)C(=O)N[C@@H](CCCCN)C(=O)N[C@@H](CCCCN)C(=O)N[C@@H](CC(C)C)C(=O)NCC(=O)N[C@H](C(=O)NCC(=O)N[C@@H](C)C(=O)N[C@@H](CC(C)C)C(=O)N[C@@H](CC(N)=O)C(=O)N[C@@H](C)C(=O)N[C@H](C(=O)N[C@@H](CC(C)C)C(=O)N[C@@H](CCCCN)C(=O)N[C@@H](CCC(N)=O)C(N)=O)C(C)C)[C@@H](C)O [GVLSNVIGYLKKLGTGALNAVLKQ]

MIC (Acinetobacter baumannii): 19.3 µM (≈ 37.5 µg/mL)
MIC [9]: ≥ 38.6 µM
MIC (Enterococcus faecium): 19.3 µM (≈ 37.5 µg/mL)
MIC [1]: > 51.4 µM
MIC (Klebsiella pneumoniae): > 51.4 µM
MIC (Serratia marcescens): ≥ 51.4 µM
MIC [10]: 19.3 µM (≈ 37.5 µg/mL)
SMILES: CC[C@H](C)[C@H](NC(=O)[C@H](CCCCN)NC(=O)[C@H](CS)NC(=O)[C@H](CC(C)C)NC(=O)CNC(=O)CNC(=O)[C@H](C)NC(=O)[C@@H](NC(=O)[C@H](CC(N)=O)NC(=O)[C@H](CCCCN)NC(=O)[C@H](CC(C)C)NC(=O)[C@@H](NC(=O)[C@H](CC(N)=O)NC(=O)[C@H](C)NC(=O)[C@H](Cc1c[nH]c2ccccc12)NC(=O)CN)[C@@H](C)O)C(C)C)C(=O)N[C@H](C(=O)NCC(=O)N[C@@H](C)C(=O)N[C@@H](C)C(=O)O)[C@@H](C)O [GWANTLKNVAGGLCKITGAA]

MIC [1]: 4.4 µM (≈ 9.25 µg/mL)
MIC [6]: 3.1 µM (≈ 6.51 µg/mL)
MIC [2]: 25 µM (≈ 52.5 µg/mL)
MIC [3]: 2.2 µM (≈ 4.62 µg/mL)
SMILES: CC[C@H](C)[C@H](NC(=O)[C@H](CCCCN)NC(=O)[C@H](CCC(N)=O)NC(=O)[C@@H](NC(=O)[C@@H](NC(=O)[C@H](CCCN=C(N)N)NC(=O)[C@H](CCCCN)NC(=O)[C@H](Cc1ccccc1)NC(=O)CN)[C@@H](C)CC)C(C)C)C(=O)N[C@@H](CCCN=C(N)N)C(=O)N[C@@H](CC(=O)O)C(=O)N[C@@H](Cc1ccccc1)C(=O)N[C@@H](CC(C)C)C(=O)N[C@@H](CCCN=C(N)N)C(=O)N[C@@H](CC(N)=O)C(=O)N[C@@H](CC(C)C)C(=O)N[C@H](C(N)=O)C(C)C [GFKRIVQKIRDFLRNLV]

MIC [11]: ≥ 200 µM
MIC [12]: 30 µM (≈ 39.9 µg/mL)
SMILES: CC[C@H](C)[C@H](NC(=O)CNC(=O)CNC(=O)[C@H](CC(C)C)NC(=O)[C@@H](N)Cc1ccccc1)C(=O)N[C@@H](CC(C)C)C(=O)N[C@@H](CC(N)=O)C(=O)N[C@H](C(=O)N[C@H](C(=O)N[C@H](C(=O)NCC(=O)N[C@@H](CC(C)C)C(=O)N[C@@H](CC(C)C)C(N)=O)[C@@H](C)O)[C@@H](C)CC)[C@@H](C)O [FLGGILNTITGLL]

MIC [13]: 7.89 µM (≈ 9.99 µg/mL)
MIC [14]: 7.89 µM (≈ 9.99 µg/mL)
MIC [15]: 3.94 µM (≈ 5 µg/mL)
MIC [16]: 0.0789 µM (≈ 0.0999 µg/mL)
MIC [17]: 0.789 µM (≈ 0.999 µg/mL)
MIC [18]: 7.89 µM (≈ 9.99 µg/mL)
SMILES: CC[C@H](C)[C@H](NC(=O)[C@H](CC(C)C)NC(=O)[C@H](CCCN=C(N)N)NC(=O)[C@H](CCCCN)NC(=O)[C@@H](NC(=O)[C@@H](NC(=O)[C@H](CCCCN)NC(=O)[C@H](CCCCN)NC(=O)[C@H](CCCCN)NC(=O)[C@@H](N)CCCCN)[C@@H](C)CC)[C@@H](C)CC)C(N)=O [KKKKIIKRLI]

MIC (Candida albicans): 29.9 µM (≈ 99.9 µg/mL)
MIC (Klebsiella pneumoniae): 2.99 µM (≈ 9.99 µg/mL)
MIC (Micrococcus luteus): 0.747 µM (≈ 2.5 µg/mL)
MIC (Proteus mirabilis): ≥ 59.7 µM
MIC (Pseudomonas aeruginosa): 22.4 µM (≈ 75 µg/mL)
MIC (Salmonella typhimurium): 6.72 µM (≈ 22.5 µg/mL)
MIC (Serratia marcescens): ≥ 59.7 µM
MIC (Shigella dysenteriae): 2.99 µM (≈ 9.99 µg/mL)
SMILES: CC[C@H](C)[C@H](NC(=O)[C@H](C)NC(=O)[C@H](CCSC)NC(=O)CNC(=O)[C@H](CCCCN)NC(=O)[C@@H](NC(=O)[C@H](CO)NC(=O)[C@H](CC(=O)O)NC(=O)[C@H](CC(C)C)NC(=O)[C@H](CC(C)C)NC(=O)CN)[C@@H](C)CC)C(=O)N[C@@H](CO)C(=O)N[C@@H](C)C(=O)NCC(=O)N[C@@H](CCCCN)C(=O)NCC(=O)N[C@@H](C)C(=O)N[C@@H](CC(C)C)C(=O)N[C@@H](CCC(N)=O)C(=O)N[C@@H](CC(N)=O)C(=O)N[C@@H](CC(C)C)C(=O)N[C@@H](CC(C)C)C(=O)N[C@@H](CCCCN)C(=O)N[C@H](C(=O)N[C@@H](C)C(=O)N[C@@H](CO)C(=O)N[C@H]1CSSC[C@@H](C(=O)O)NC(=O)[C@H]([C@@H](C)O)NC(=O)[C@H](CCCCN)NC(=O)[C@H](CC(=O)O)NC(=O)[C@H](CC(C)C)NC(=O)[C@H](CCCCN)NC1=O)C(C)C [GLLDSIKGMAISAGKGALQNLLKVASCKLDKTC]

MIC [13]: 6.68 µM (≈ 9.99 µg/mL)
MIC [14]: 6.68 µM (≈ 9.99 µg/mL)
MIC [15]: 6.68 µM (≈ 9.99 µg/mL)
MIC [16]: 1.67 µM (≈ 2.5 µg/mL)
MIC [17]: 0.668 µM (≈ 0.999 µg/mL)
MIC [18]: 6.68 µM (≈ 9.99 µg/mL)
SMILES: CC[C@H](C)[C@H](NC(=O)[C@@H](NC(=O)[C@H](CCCCN)NC(=O)[C@H](CCCCN)NC(=O)[C@@H](NC(=O)[C@@H](NC(=O)[C@H](CCCCN)NC(=O)[C@H](CCCCN)NC(=O)[C@H](CCCCN)NC(=O)[C@H](CCCCN)NC(=O)[C@H](CCCCN)NC(=O)[C@@H](N)CCCCN)[C@@H](C)CC)[C@@H](C)CC)[C@@H](C)CC)C(N)=O [KKKKKKIIKKII]

MIC (Escherichia coli K-12): ≥ 100 µM
MIC [3]: ≥ 100 µM
SMILES: CC[C@H](C)[C@H](NC(=O)[C@H](C)NC(=O)[C@H](CCC(=O)O)NC(=O)[C@H](Cc1cnc[nH]1)NC(=O)[C@H](CC(C)C)NC(=O)CNC(=O)[C@H](CCC(N)=O)NC(=O)[C@H](Cc1ccccc1)NC(=O)[C@@H](NC(=O)[C@H](CCCCN)NC(=O)[C@H](CCCCN)NC(=O)[C@H](CC(C)C)NC(=O)[C@@H](NC(=O)[C@H](CC(N)=O)NC(=O)[C@H](CC(C)C)NC(=O)CN)[C@@H](C)O)C(C)C)C(=O)N[C@@H](CCCCN)C(=O)N[C@@H](CC(C)C)C(=O)N[C@H](C(=O)N[C@@H](CC(N)=O)C(=O)N[C@@H](CC(N)=O)C(=O)N[C@@H](Cc1cnc[nH]1)C(=O)N[C@H](C(=O)N[C@@H](CCC(N)=O)C(=O)O)C(C)C)[C@@H](C)CC [GLNTLKKVFQGLHEAIKLINNHVQ]

MIC [19]: > 15.2 µM
MIC [20]: 15.2 µM (≈ 32 µg/mL)
MIC [21]: 15.2 µM (≈ 32 µg/mL)
MIC [1]: > 15.2 µM
MIC [22]: > 15.2 µM
MIC [7]: > 15.2 µM
MIC [23]: > 15.2 µM
SMILES: CC(C)C[C@H](NC(=O)CNC(=O)[C@H](CO)NC(=O)CNC(=O)[C@H](Cc1cnc[nH]1)NC(=O)[C@H](CCCN=C(N)N)NC(=O)CN)C(=O)NCC(=O)N[C@@H](Cc1cnc[nH]1)C(=O)N[C@@H](CO)C(=O)N[C@@H](CO)C(=O)N[C@@H](CO)C(=O)N[C@@H](Cc1cnc[nH]1)C(=O)NCC(=O)N[C@@H](CCC(N)=O)C(=O)N[C@@H](Cc1cnc[nH]1)C(=O)NCC(=O)N[C@@H](CO)C(=O)NCC(=O)N[C@@H](CO)C(=O)NCC(=O)N[C@@H](CCCN=C(N)N)C(=O)O [GRHGSGLGHSSSHGQHGSGSGR]
